This note sets out measurements from patent US9090549B2, “1,4-naphthoquinones derivatives and therapeutic use thereof” (CENTRE NATIONAL DE LA RECHERCHE SCIENTIFIQUE (C.N.R.S.), priority 2008, dated 2015).

The target in data set [1] is P. falciparum glutathione reductase (PfGR) (Plasmodium falciparum, UniProt Q94655). In words: 1,4-Naphthoquinone reductase activity of P. falciparum glutathione reductase. It counts as biochemical. To be noted: for substrate behaviour from catalytic efficiencies kcat/KM: with respect to menadione; for increased catalytic efficiency (kcat/KM) with respect to menadione: relative to menadione. As for the experimental part:
The reduction assay mixture consisted of 100 mM potassium phosphate buffer pH 6.9, 200 mM KCl, 1 mM EDTA and 100 μM NADPH in a total volume of 1 mL. 1,4-naphthoquinone reductase activity was determined by recording the initial velocities in the presence of increasing naphthoquinone concentrations (0-300 μM). […] For the determination of KM and Vmax values, the steady-state rates were fitted by using nonlinear regression analysis software (Kaleidagraph) to the Michaelis-Menten equation. From these values, the turnover number kcat and the catalytic efficiency kcat/KM were calculated.

The target in data set [2] is methemoglobin(Fe3+) (Homo sapiens, UniProt P68871+P69905). Description: Redox-cycling of methemoglobin(Fe3+) into oxyhemoglobin(Fe2+) with NADPH/GR system. It counts as biochemical. An excerpt:
Since FPIX(Fe^2+) is an inhibitor of hematin polymerization, compounds displaying the ability to reduce FPIX(Fe^3+) into FPIX(Fe^2+) might synergistically contribute with GR inhibition to increased oxidative stress in infected-red blood cells. To evaluate the redox-cycling activity of FPIX(Fe^3+) into FPIX(Fe^2+) we set up an assay using the naphthoquinone, the glutathione reductase/NADPH-based system to regenerate the dihydronaphthoquinone continuously and methemoglobin(Fe^3+) (MetHb). The UV-spectrum of MetHb between 300 nm and 700 nm is characterized by a maximal absorbance at 405 nm and a broad band centered at around 630 nm. […] We used 20 μM methylene blue as positive control of this redox-cycling activity.
In an Eppendorf tube containing 6.4 mg MetHb dissolved in 885 μL GR buffer (47 mM potassium phosphate buffer pH 6.9, 200 mM KCl, 100 mM EDTA), 10 μL 20 mM P_TM25 dissolved in DMSO and 100 μL NADPH dissolved in GR buffer were added. The reaction was started by the addition of 5 μL human GR and then incubated at 37° C. In a 1 mL cuvette 20 μL of the reaction mixture was diluted with 980 μL GR buffer and a UV-spectra between 300 nm and 700 nm was done after 5 min, 10 min, 20 min and 30 min incubation time. The final concentrations in the reaction mixture were 100 μM MetHb, 200 μM P_TM25, 400 μM NADPH and […] hGR, final DMSO concentration 1%.
Spectra were measured after 5 min (blue), 10 min (black), 20 min (green) and 30 min (red).

Data set [3] relates to P. berghei ANKA. Description: In vivo 4-day suppressive test in P. berghei-infected mice. More on the design: species or system Plasmodium berghei. To be noted: for activity on 4-day treatment / reduction in parasitaemia: intraperitoneal; for activity on 4-day treatment: P. berghei-infected mice; for reduction in parasitaemia: daily dose of 30 mg/kg. As for the experimental part: The in vivo tests in the mouse model were done according to a standard protocol (Peters et al Handbook of Animal Models of Infection; Academic Press, London, 1999; pp. 756-771). […] […] For administration, compounds were freshly prepared in 10% DMSO in sterile phosphate-buffered saline the day of use. Two hours post-infection mice received the first treatment by the intraperitoneal route. Mice were further treated on days +1-3. Blood films from tail blood were prepared on day +4, and parasitaemia was determined by microscopic examination of Giemsa-stained blood films. […] […] Mice were treated and levels of parasitemia determined as described.

Data set [4] deals with Pf-GHA. In words: Pf-GHA growth inhibition, colorimetric NBT-based lactate dehydrogenase assay. As to conditions: Plasmodium falciparum; 72 h incubation; read-out: IC50 against Pf-GHA. It counts as cell-based. On the procedure:
The IC50 values against Pf-GHA and MRC-5 were determined by using the less sensitive colorimetric NBT-based lactate dehydrogenase assay (Makler et al, Am. J. Trop. Med. Hyg. 1993, 48 (6), 739-741) based on redox-reactions.
In Vitro Antiparasitic Bioassays. The strain is maintained in RPMI-1640 medium supplemented with 0.37 mM hypoxanthine, 25 mM HEPES, 25 mM NaHCO3, and 10% O^+ human serum together with 2-4% washed human O^+ erythrocytes. All cultures and assays are conducted under an atmosphere of 4% CO2, 3% O2 and 93% N2. Assays are performed in 96-well microtiter plates, each well containing 10 μL of the watery compound dilutions together with 190 μL of the malaria parasite inoculum (1% parasitaemia, 2% HCT). After 72 h incubation, plates are frozen and stored at −20° C. After thawing, 20 μL of each well is transferred into another plate together with 100 μL Malstat reagent and 20 μL of 1/1 mixture of PES (phenazine ethosulfate, 0.1 mg/mL) and NBT (Nitro Blue Tetrazolium Grade III, 2 mg/mL). Change in colour is measured spectrophotometrically at 655 nm. The results are expressed as % reduction in parasitaemia compared to control wells. Compounds are treated at 5 concentrations (64-16-4-1 and 0.25 μM or μg/mL).

Data set [5] relates to P. falciparum multidrug-resistant strain Dd2. In words: Dd2 growth inhibition, 3H-hypoxanthine assay. It counts as cell-based, Plasmodium falciparum. To be noted: Plasmodium falciparum, DD2, 48 h exposure then 24 h hypoxanthine; read-out: IC50 against Dd2. On the procedure:
The IC50 was tested by standard in vitro antiproliferation assays (Desjardins et al, 1979 Antimicrob. Agents Chemother 1979, 16, 710-718). Infected erythrocytes in ring stage (0.5% parasitemia, 2.5% hematocrit) in 96-well plates were exposed to the compounds for 48 h and then to radioactive hypoxanthine for 24 h. The amount of radioactivity in precipitable material served as an index of cell proliferation.

Data set [6] deals with T1, human glutathione reductase (hGR) (Homo sapiens, UniProt P00390).
T1 sequence (P00390 44-522): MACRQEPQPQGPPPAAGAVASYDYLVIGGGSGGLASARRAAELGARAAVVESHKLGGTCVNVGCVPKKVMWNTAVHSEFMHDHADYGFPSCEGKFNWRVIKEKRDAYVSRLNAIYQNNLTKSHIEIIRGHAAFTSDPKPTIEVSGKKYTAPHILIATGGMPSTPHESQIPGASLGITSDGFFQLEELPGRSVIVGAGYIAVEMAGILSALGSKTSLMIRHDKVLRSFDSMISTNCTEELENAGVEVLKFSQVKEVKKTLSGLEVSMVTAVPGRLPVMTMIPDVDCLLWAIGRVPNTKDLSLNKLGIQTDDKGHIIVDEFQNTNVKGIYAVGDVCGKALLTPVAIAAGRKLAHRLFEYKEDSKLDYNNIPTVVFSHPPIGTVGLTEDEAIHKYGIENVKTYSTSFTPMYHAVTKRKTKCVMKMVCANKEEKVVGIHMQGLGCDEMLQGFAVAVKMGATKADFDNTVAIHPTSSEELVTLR
Description: Inhibition of human glutathione reductase under steady-state conditions. It counts as biochemical. As to conditions: pH 6.9, 25° C., 1 mM GSSG, 100 μM NADPH.

methemoglobin(Fe3+), sequence (P69905 2-142 limits assumed): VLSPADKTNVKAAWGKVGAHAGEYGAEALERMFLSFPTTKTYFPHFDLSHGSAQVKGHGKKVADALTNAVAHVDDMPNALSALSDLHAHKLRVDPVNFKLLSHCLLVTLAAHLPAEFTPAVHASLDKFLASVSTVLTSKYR
methemoglobin(Fe3+), sequence (P68871 2-147 limits assumed): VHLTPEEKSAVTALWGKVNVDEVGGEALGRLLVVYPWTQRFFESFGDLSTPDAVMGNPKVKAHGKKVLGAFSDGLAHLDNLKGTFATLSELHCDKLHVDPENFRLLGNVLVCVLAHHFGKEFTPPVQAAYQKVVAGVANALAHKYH
P. falciparum glutathione reductase (PfGR), sequence (Q94655 2-500 limits assumed): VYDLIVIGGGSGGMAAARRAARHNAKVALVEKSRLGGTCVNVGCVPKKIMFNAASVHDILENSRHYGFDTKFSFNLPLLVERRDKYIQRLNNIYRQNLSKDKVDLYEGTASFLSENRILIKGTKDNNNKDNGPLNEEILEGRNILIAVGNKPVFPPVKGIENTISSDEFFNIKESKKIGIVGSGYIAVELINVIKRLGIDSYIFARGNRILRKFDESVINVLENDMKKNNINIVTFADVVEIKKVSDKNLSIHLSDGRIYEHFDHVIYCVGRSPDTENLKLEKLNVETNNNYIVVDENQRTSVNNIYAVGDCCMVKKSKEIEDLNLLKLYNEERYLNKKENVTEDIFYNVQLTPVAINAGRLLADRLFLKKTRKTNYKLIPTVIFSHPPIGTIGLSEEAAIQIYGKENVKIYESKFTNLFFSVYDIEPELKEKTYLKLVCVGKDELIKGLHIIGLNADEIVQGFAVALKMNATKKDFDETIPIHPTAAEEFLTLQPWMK

Consider “2-Methyl-3-(fluoro-benzoyl)-4a,8a-dihydro-[1,4]naphthoquinone [P_TM27]”, for which, in data set [1] (pH 6.9, 100 μM NADPH, 1% DMSO), the Km (as a rule, the concentration of substrate that gives half-maximal velocity) was determined as 56.1 µM. In data set [1], the “substrate behaviour from catalytic efficiencies kcat/KM” value (shortened to “substrate behaviour”) is listed as “very effective substrates”.
As for `CN(C)c1ccc2nc3ccc(=[N+](C)C)cc-3sc2c1` [Methylene Blue, reference compound], the “shift of λmax of MetHb” value in data set [2] (20 μM Methylene Blue, same conditions) was “clear shift”.
`CC1=C(Cc2ccc(Br)cc2)C(=O)C2C=CC=CC2C1=O` (centres unmarked) [P_TM24, 2-Methyl-3-(4-bromo-benzyl)-4a,8a-dihydro-[1,4]naphthoquinone]: the melting point – broadly, the temperature, or range, at which the solid turns liquid – lay in the range of 121 to 122 °C. This compound showed a decrease in parasitaemia in data set [3] (daily dose of 50 mg/kg ip, 4-day test, mice) of 35.6%. Further, the “activity on 4-day treatment” value in data set [3] is listed as “significant activity”. Further, in data set [4], the half-inhibitory concentration (IC50) (commonly the midpoint of a concentration-inhibition curve) is less than 5 µM. Moreover, the IC50 in data set [5] was less than 0.1 µM.
`CC1=C(C(=O)c2ccc(Br)cc2)C(=O)C2C=CC=CC2C1=O` (centres unmarked) [P_TM25, 2-Methyl-3-(4-bromo-benzoyl)-4a,8a-dihydro-[1,4]naphthoquinone] showed a melting point of 170 to 171 °C. Also, the “substrate behaviour” value in data set [1] is “very effective substrates”. In addition, the “concentration at which the shift of maximal absorbance of MetHb from 405 to 410 nm starts being visible” value in data set [2] (100 μM MetHb, NADPH, human GR) worked out at 50 µM. Also, the “redox-cycling of methemoglobin in the presence of GR” value in data set [2] (200 μM P_TM25, 100 μM MetHb, 400 μM NADPH, human GR, 37° C.) is “can undergo redox-cycling of methemoglobin”.
On to `CC1=C(Cc2ccc(C(F)(F)F)cc2)C(=O)c2ccccc2C1=O` [P_TM29], for which inhibition in data set [6] was half-maximal at 1.6 µM (IC50).
In turn, `COc1ccc(C(=O)C2=C(C)C(=O)C3C=CC=CC3C2=O)cc1` (centres unmarked) [P_TM34, 2-Methyl-3-(4-methoxy-benzoyl)-4a,8a-dihydro-[1,4]naphthoquinone] displayed a melting point of 150 to 151 °C. The “substrate behaviour” value in data set [1] is “very effective substrates”.
Consider `CC1=C(Cc2ccc(O)cc2)C(=O)C2C=CC=CC2C1=O` (centres unmarked) [P_TM36, 2-Methyl-3-(4-hydroxy-benzyl)-4a,8a-dihydro-[1,4]naphthoquinone], for which the melting point lay in the range of 165 to 166 °C. Further, the “activity on 4-day treatment” value in data set [3] is “significant activity”. For the same compound, the IC50 in data set [4] is less than 5 µM. In addition, in data set [5], the IC50 was less than 0.1 µM.
Regarding `CC1=C(Cc2ccc([N+](=O)[O-])cc2)C(=O)C2C=CC=CC2C1=O` (centres unmarked) [P_TM37, 2-Methyl-3-(4-nitro-benzyl)-4a,8a-dihydro-[1,4]naphthoquinone], the melting point lay in the range of 156 to 157 °C. This compound returned a reduction in parasitaemia in data set [3] (4-day test, mice) of 42.4%. The “activity on 4-day treatment” value in data set [3] was “significant activity”.
The compound `CC1=C(C(=O)c2ccc(O)cc2)C(=O)C2C=CC=CC2C1=O` (centres unmarked) [P_TM39, 2-Methyl-3-(4-hydroxy-benzoyl)-4a,8a-dihydro-[1,4]naphthoquinone] returned a melting point of 184 to 185 °C. Also, the “substrate behaviour” value in data set [1] is given as “very effective substrates”. The IC50 in data set [4] was less than 5 µM.
`CC1=C(C(=O)c2ccc([N+](=O)[O-])cc2)C(=O)C2C=CC=CC2C1=O` (centres unmarked) [P_TM40, 2-Methyl-3-(4-nitro-benzoyl)-4a,8a-dihydro-[1,4]naphthoquinone] showed a melting point of 170 to 171 °C. In addition, in data set [1], the “increased catalytic efficiency (kcat/KM) with respect to menadione” value (“increased catalytic efficiency (kcat/KM)” for short) amounted to 3.9 fold and the “substrate behaviour” value is reported as “very effective substrates”. Moreover, the IC50 in data set [5] came out at 0.103 µM.
Turning to `CC1=C(Cc2ccc(C(C)(C)C)cc2)C(=O)C2C=CC=CC2C1=O` (centres unmarked) [P_TM43, 2-Methyl-3-(4-tert-butyl-benzyl)-4a,8a-dihydro-[1,4]naphthoquinone], the melting point was 60 to 61 °C. In addition, the reduction in parasitaemia in data set [3] (4-day test, mice) was 43.4%. In addition, in data set [3], the “activity on 4-day treatment” value is on record as “significant activity”. Also, the IC50 in data set [5] was less than 0.1 µM.
As to `CC1=C(C(=O)c2ccc(Br)cc2)C(=O)C2C(O)=CC=CC2C1=O` (centres unmarked) [P_TM47, 3-(4-bromo-benzoyl)-5-hydroxy-2-methyl 4a,8a-dihydro-[1,4]naphthoquinone], the melting point lay within 161 to 162 °C. For the same compound, in data set [1], the “increased catalytic efficiency (kcat/KM)” value turned out to be 6.3 fold and the “substrate behaviour” value is given as “very effective substrates”.
Consider `CC1=C(CC2=CC(=O)C=CC2=O)C(=O)C2C=CC=CC2C1=O` (centres unmarked) [P_TM63, 2-(3,6-Dioxo-cyclohexa-1,4-dienylmethyl)-3-methyl-4a,8a-dihydro-[1,4]naphthoquinone], for which, in data set [1], the “increased catalytic efficiency (kcat/KM)” value stood at 17.2 fold and the “substrate behaviour” value is given as “very effective substrates”.
